EP0385662B1, “Heterocycles with inhibitory activity of 5-lipoxygenase” (ZENECA LIMITED, priority 1989, dated 1990)

Legend:
[1] = test system: 5-LO; assay: Test c): ex vivo variation of test b), oral administration, blood collection, A23187 challenge, radioimmunoassay of LTB4; format: in vivo
Experimental: (§1) As stated previously, the heterocycles of the formula I are inhibitors of the enzyme 5-LO. […] This test provides a measure of the intrinsic inhibitory properties against soluble 5-LO in an extracellular environment. • b) An in vitro assay system involving incubating a test compound with heparinised human blood, prior to challenge with the calcium ionophore A23187 and then indirectly measuring the inhibitory effects on 5-LO by assaying the amount of L TB4 using the specific radioimmunoassay described by Carey and Forder (F. Carey and R.A. Forder, Brit. J. Pharmacol. 1985, 84, 34P) which involves the use of a protein-L TB4 conjugate produced using the procedure of Young et alia (Prostaglandins, 1983, 26(4), 605-613). The effects of a test compound on the enzyme cyclooxygenase (which is involved in the alternative metabolic pathway for arachidonic acid and gives rise to prostaglandins, thromboxanes and related metabolites) may be measured at the same time using the specific radioimmunoassay for thromboxane B2(TxB2) described by Carey and Forder (see above). This test provides an indication of the effects of a test compound against 5-LO and also cyclooxygenase in the presence of blood cells and proteins. It permits the selectivity of the inhibitory effect on 5-LO or cyclooxygenase to be assessed. • c) An ex vivo assay system, which is a variation of test b) above, involving administration of a test compound (usually orally as the suspension produced when a solution of the test compound in dimethylsulphoxide is added to carboxymethylcellulose), blood collection, heparinisation, challenge with A23187 and radioimmunoassay of L TB4 and TxB2. […]

[2] = biological target: T1, 5-LO (Homo sapiens, UniProt P09917); assay: Test b): in vitro heparinised human blood challenged with calcium ionophore A23187, radioimmunoassay of LTB4; format: cell-based; settings: A23187 challenge, read-out: IC50 against LTB4
T1 construct: incubating a test compound with heparinised human blood, prior to challenge with the calcium ionophore A23187; endogenous in cells; host or cells: leukocytes of heparinised human whole blood
T1 sequence (P09917 1-674): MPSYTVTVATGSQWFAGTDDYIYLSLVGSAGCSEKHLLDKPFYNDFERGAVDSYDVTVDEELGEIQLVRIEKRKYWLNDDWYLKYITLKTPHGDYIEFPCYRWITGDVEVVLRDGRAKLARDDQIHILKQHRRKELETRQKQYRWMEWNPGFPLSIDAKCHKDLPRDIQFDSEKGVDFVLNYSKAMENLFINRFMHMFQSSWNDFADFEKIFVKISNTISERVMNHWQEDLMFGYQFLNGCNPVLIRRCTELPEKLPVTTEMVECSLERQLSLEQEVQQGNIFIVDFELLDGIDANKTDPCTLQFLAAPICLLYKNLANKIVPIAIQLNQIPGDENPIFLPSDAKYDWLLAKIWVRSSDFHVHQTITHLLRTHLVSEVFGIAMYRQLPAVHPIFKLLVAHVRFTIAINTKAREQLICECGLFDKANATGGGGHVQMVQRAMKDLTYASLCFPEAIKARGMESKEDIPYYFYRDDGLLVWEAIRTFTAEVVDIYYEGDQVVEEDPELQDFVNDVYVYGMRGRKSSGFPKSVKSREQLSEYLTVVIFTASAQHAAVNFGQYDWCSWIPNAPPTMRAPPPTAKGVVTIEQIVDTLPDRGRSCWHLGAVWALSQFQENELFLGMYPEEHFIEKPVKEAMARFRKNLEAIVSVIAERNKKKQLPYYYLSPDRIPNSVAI
Experimental: as §1, with “J. Pharmacol. 1985, 84, 34P) which involves the use of a protein-L TB4 conjugate produced using the procedure of Young et alia (Prostaglandins, 1983, 26(4), 605-613).” left out, “This test provides an indication of the effects of a test compound against 5-LO and also cyclooxygenase in the presence of blood cells and proteins.” left out

[3] = biological target: T2, cyclooxygenase (Homo sapiens, UniProt P23219); assay: Test b): in vitro heparinised human blood challenged with A23187, radioimmunoassay of thromboxane B2 (TxB2); format: cell-based; settings: A23187 challenge, read-out: IC50 against TxB2
T2 construct: may be measured at the same time using the specific radioimmunoassay for thromboxane B2(TxB2); endogenous in cells; host or cells: blood cells (platelets) of heparinised human whole blood
T2 sequence (P23219 24-599): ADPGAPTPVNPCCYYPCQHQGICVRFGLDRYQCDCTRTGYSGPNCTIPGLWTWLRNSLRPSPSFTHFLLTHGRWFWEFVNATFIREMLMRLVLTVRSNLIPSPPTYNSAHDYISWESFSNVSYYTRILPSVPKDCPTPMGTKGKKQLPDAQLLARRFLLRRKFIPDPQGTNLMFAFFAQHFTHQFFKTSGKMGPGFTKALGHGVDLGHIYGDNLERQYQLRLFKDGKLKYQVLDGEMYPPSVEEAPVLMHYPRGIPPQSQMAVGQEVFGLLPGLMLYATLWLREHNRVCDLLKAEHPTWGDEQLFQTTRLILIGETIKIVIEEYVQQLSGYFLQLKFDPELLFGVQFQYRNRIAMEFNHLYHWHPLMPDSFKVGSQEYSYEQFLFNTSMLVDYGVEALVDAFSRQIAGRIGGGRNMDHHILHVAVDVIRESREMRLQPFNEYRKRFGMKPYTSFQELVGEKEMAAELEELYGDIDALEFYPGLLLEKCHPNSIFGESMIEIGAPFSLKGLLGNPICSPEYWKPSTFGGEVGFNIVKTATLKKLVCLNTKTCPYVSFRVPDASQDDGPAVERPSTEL
Experimental: as §1, with “J. Pharmacol. 1985, 84, 34P) which involves the use of a protein-L TB4 conjugate produced using the procedure of Young et alia (Prostaglandins, 1983, 26(4), 605-613).” left out, “This test provides an indication of the effects of a test compound against 5-LO and also cyclooxygenase in the presence of blood cells and proteins.” left out

| IC50 [2] [µM] | IC50 [3] [µM] | Compound | oral ED50 against LTB4 [1] [mg/kg] |
| --- | --- | --- | --- |
|  |  | COC1(c2cccc(OCc3ccc4c(ccc(=O)n4C)c3)c2)CCOCC1 [4-[3-(1,2-dihydro-1-methyl-2-oxoquinolin-6-ylmethoxy)phenyl]-4-methoxytetrahydropyran] | 3 |
| 0.1 |  | COC1(c2cc(F)cc(OCc3ccc4ncccc4c3)c2)CCOCC1 [4-[5-fluoro-3-(6-quinolylmethoxy)phenyl]-4-methoxytetrahydropyran] | 8 |
| 2 | > 40 | COC1(c2cccc(OCC#Cc3ccccn3)c2)CCOCC1 [4-methoxy-4-[3-(3-(2-pyridyl)prop-2-yn-1-yloxy)phenyl]-tetrahydropyran] | < 100 |
